According to patent US7316738B2, “Milled submicron chlorothalonil with narrow particle size distribution, and uses thereof” (Phibro-Tech, Inc., priority 2004, dated 2008):
Read-outs that look alike come from different tables or passages of the source.

What was measured:
[1] = cited from earlier work
[2] = system: leafspot infestation; conditions: cited from earlier work; for Def (0.42) defoliation: 0.42 kg chlorothalonil per ha; for Def (0.84) defoliation: 0.84 kg chlorothalonil per ha; for Def (1.26) defoliation: 1.26 kg chlorothalonil per ha
[3] = cited from earlier work; remark: listed apart in the source
[4] = Particle size (Sedigraph 5100T) of chlorothalonil milled with 0.5–0.6 mm cerium-doped zirconium oxide; type: physicochemical
Experimental: The laboratory-sized vertical mill was provided by CB Mills, model# L-3-J. The mill has a 2 liter capacity and is jacketed for cooling. Unless otherwise specified, ambient water was cycled through the mill cooling jacket during operation. The internal dimensions are 3.9″ diameter by 9.1″ height. The mill uses a standard 3×3″ disk agitator (mild steel) on a stainless steel shaft, and it operates at 2,620 rpm.
The media used in this Example was 0.4–0.5 mm zirconium silicate beads supplied by CB Mills. All particle size determinations were made with a Sedigraph™ 5100T manufactured by Micromeritics, which uses x-ray detection and bases calculations of size on Stokes' Law.
The same mill and conditions were used in this experiment as in experiment 1. However, the grinding media was 0.5–0.6 mm cerium-doped zirconium oxide beads obtained from CB Mills. The density of the cerium doped zirconium oxide is ˜6.0 g/cm^3. […] The total batch weight was about 600 g.

[5] = Particle size (Sedigraph 5100T) of chlorothalonil milled with 0.4–0.5 mm zirconium silicate; type: physicochemical
[6] = 0.1 cm zirconia, 70% to 80% loading, 10 minutes, US 2004/0063847, 2003/0040569
[7] = milling time 0 mins, 0.5–0.6 mm cerium-doped zirconium oxide beads
[8] = milling time 90 mins, 0.5–0.6 mm cerium-doped zirconium oxide beads
[9] = milling time 240 mins, 0.5–0.6 mm cerium-doped zirconium oxide beads
[10] = 0.1 cm zirconium beads, 3000 rpm, 10 minutes, US 2004/0024099
[11] = milling time 0 mins, 0.4–0.5 mm zirconium silicate beads
[12] = milling time 30 mins, 0.4–0.5 mm zirconium silicate beads
[13] = milling time 60 mins, 0.4–0.5 mm zirconium silicate beads
[14] = milling time 90 mins, 0.4–0.5 mm zirconium silicate beads
[15] = milling time 120 mins, 0.4–0.5 mm zirconium silicate beads
[16] = milling time 150 mins, 0.4–0.5 mm zirconium silicate beads
[17] = milling time 180 mins, 0.4–0.5 mm zirconium silicate beads
[18] = milling time 270 mins, 0.4–0.5 mm zirconium silicate beads
[19] = milling time 450 mins, 0.4–0.5 mm zirconium silicate beads

manganese ethylenebis(dithiocarbamate) [Maneb]
mean particle diameter ([1]; milled with 2 mm glass beads, U.S. Pat. No. 5,360,783 Example 2): 1.7–1.8 micons

N#Cc1c(Cl)c(Cl)c(Cl)c(C#N)c1Cl [Wet, chlorothalonil]
Def (0.42) defoliation ([2]; 1974 data, wet milled 3 hr): 33 | Def (0.84) defoliation ([2]; 1974 data, wet milled 3 hr): 24 | Def (1.26) defoliation ([2]; 1974 data, wet milled 3 hr): 15.5 | Def (0.42) defoliation ([2]; 1974 data, wet milled 9 hr): 32 | Def (0.84) defoliation ([2]; 1974 data, wet milled 9 hr): 17.2 | Def (1.26) defoliation ([2]; 1974 data, wet milled 9 hr): 14.1 | Def (0.42) defoliation ([2]; 1974 data, wet milled 13 hr): 27 | Def (0.84) defoliation ([2]; 1974 data, wet milled 13 hr): 23 | Def (1.26) defoliation ([2]; 1974 data, wet milled 13 hr): 15.4 | Def (0.42) defoliation ([2]; 1975 data, wet milled 3 hr): 35 | Def (0.84) defoliation ([2]; 1975 data, wet milled 3 hr): 28 | Def (1.26) defoliation ([2]; 1975 data, wet milled 3 hr): 28 | Def (0.42) defoliation ([2]; 1975 data, wet milled >9 hr): 32 | Def (0.84) defoliation ([2]; 1975 data, wet milled >9 hr): 29 | Def (1.26) defoliation ([2]; 1975 data, wet milled >9 hr): 29 | <1μ, % (percentage of particles with a diameter less than 1 micron) ([3]; 1974 data, wet milled 3 hr): 8% | med. μ (median diameter in microns) ([3]; 1974 data, wet milled 3 hr): 3.8 microns | <1μ, % (percentage of particles with a diameter less than 1 micron) ([3]; 1974 data, wet milled 9 hr): 22% | med. μ (median diameter in microns) ([3]; 1974 data, wet milled 9 hr): 1.75 microns | <1μ, % (percentage of particles with a diameter less than 1 micron) ([3]; 1974 data, wet milled 13 hr): 24% | med. μ (median diameter in microns) ([3]; 1974 data, wet milled 13 hr): 1.6 microns | <1μ, % (percentage of particles with a diameter less than 1 micron) ([3]; 1975 data, wet milled 3 hr): 10% | med. μ (median diameter in microns) ([3]; 1975 data, wet milled 3 hr): 3.7 microns | <1μ, % (percentage of particles with a diameter less than 1 micron) ([3]; 1975 data, wet milled >9 hr): 22% | med. μ (median diameter in microns) ([3]; 1975 data, wet milled >9 hr): 1.6 microns

CC1OC(C)OC(C)OC(C)O1 (stereo not shown) [metaldehyde]
diameter that 90% of the particles are below [1, 6]: less than 2.5 microns | mean volume diameter [1, 6]: less than 1.5 microns

N#Cc1c(Cl)c(Cl)c(Cl)c(C#N)c1Cl [Air, chlorothalonil]
Def (0.42) defoliation ([2]; 1974 data, air milled): 39 | Def (0.84) defoliation ([2]; 1974 data, air milled): 25 | Def (1.26) defoliation ([2]; 1974 data, air milled): 19 | Def (0.42) defoliation ([2]; 1975 data, air milled): 35 | Def (0.84) defoliation ([2]; 1975 data, air milled): 34 | Def (1.26) defoliation ([2]; 1975 data, air milled): 27 | <1μ, % (percentage of particles with a diameter less than 1 micron) ([3]; 1974 data, air milled): 7% | med. μ (median diameter in microns) ([3]; 1974 data, air milled): 3.3 microns | <1μ, % (percentage of particles with a diameter less than 1 micron) ([3]; 1975 data, air milled): 5% | med. μ (median diameter in microns) ([3]; 1975 data, air milled): 3.3 microns

N#Cc1c(Cl)c(Cl)c(Cl)c(C#N)c1Cl [chlorothalonil, 2,4,5,6-tetrachloro-1,3-dicyanobenzene]
increase in number of particles per unit of mass over the standard products (factor) ([4]; after 90 minutes of milling (first statement)): more than 30 | increase in number of particles per unit of mass over the standard products (factor) ([4]; after 90 minutes of milling (second statement)): more than 1000 | Volume % With Diameter Greater Than 1 μm [4, 7]: 92 Volume % | Volume % With Diameter Greater Than 2 μm [4, 7]: 77 Volume % | Volume % With Diameter Greater Than 5 μm [4, 7]: 30 Volume % | Volume % With Diameter Greater Than 10 μm [4, 7]: 8 Volume % | Volume % With Diameter Greater Than 0.4 μm [4, 8]: 22 Volume % | Volume % With Diameter Greater Than 1 μm [4, 8]: 3 Volume % | Volume % With Diameter Greater Than 2 μm [4, 8]: 3 Volume % | Volume % With Diameter Greater Than 5 μm [4, 8]: 3 Volume % | Volume % With Diameter Greater Than 10 μm [4, 8]: 3 Volume % | d50 [4, 8]: 0.31 μm | Volume % With Diameter Greater Than 0.2 μm [4, 9]: 51 Volume % | Volume % With Diameter Greater Than 0.4 μm [4, 9]: 3 Volume % | Volume % With Diameter Greater Than 1 μm [4, 9]: 3 Volume % | Volume % With Diameter Greater Than 2 μm [4, 9]: 2 Volume % | Volume % With Diameter Greater Than 5 μm [4, 9]: 1 Volume % | Volume % With Diameter Greater Than 10 μm [4, 9]: 0 Volume % | d50 [4, 9]: 0.21 μm | d50 ([4]; obtainable in 90 minutes, 0.5 mm zirconia milling media): less than 1 micron | mean volume diameter (d50) [1, 10]: less than 3 microns | size that 90% of the number of particles are below [1, 10]: below 0.5 microns | average particle size of the product ([1]; 40% chlorothalonil, 5.6% zinc oxide formulation, wet mill or high speed media mill, U.S. Pat. No. 5,667,795): 3 microns | average particle size diameter ([1]; milled with 2 mm glass beads, U.S. Pat. No. 5,360,783 Test 5): 2.3 microns | d90 ([5]; at 60 minutes, 0.4–0.5 mm zirconium silicate media): about 2 microns | starting particle size ([5]; before wet milling): 3–4 microns | Volume % With Diameter Greater Than 2 μm [5, 11]: 95 Volume % | Volume % With Diameter Greater Than 5 μm [5, 11]: 48 Volume % | Volume % With Diameter Greater Than 10 μm [5, 11]: 10 Volume % | d50 [5, 11]: 4.9 μm | Volume % With Diameter Greater Than 1 μm [5, 12]: 68 Volume % | Volume % With Diameter Greater Than 2 μm [5, 12]: 21 Volume % | Volume % With Diameter Greater Than 5 μm [5, 12]: 4 Volume % | Volume % With Diameter Greater Than 10 μm [5, 12]: 0 Volume % | d50 [5, 12]: 1.3 μm | Volume % With Diameter Greater Than 1 μm [5, 13]: 50 Volume % | Volume % With Diameter Greater Than 2 μm [5, 13]: 11 Volume % | Volume % With Diameter Greater Than 5 μm [5, 13]: 2 Volume % | Volume % With Diameter Greater Than 10 μm [5, 13]: 4 Volume % | d50 [5, 13]: 1.0 μm | Volume % With Diameter Greater Than 1 μm [5, 14]: 94 Volume % | Volume % With Diameter Greater Than 2 μm [5, 14]: 22 Volume % | Volume % With Diameter Greater Than 5 μm [5, 14]: 23 Volume % | Volume % With Diameter Greater Than 10 μm [5, 14]: 18 Volume % | d50 [5, 14]: 1.4 μm | Volume % With Diameter Greater Than 2 μm [5, 15]: 4 Volume % | Volume % With Diameter Greater Than 5 μm [5, 15]: 0 Volume % | Volume % With Diameter Greater Than 10 μm [5, 15]: 2 Volume % | Volume % With Diameter Greater Than 1 μm [5, 16]: 58 Volume % | Volume % With Diameter Greater Than 2 μm [5, 16]: 6 Volume % | Volume % With Diameter Greater Than 5 μm [5, 16]: 2 Volume % | Volume % With Diameter Greater Than 10 μm [5, 16]: 0 Volume % | Volume % With Diameter Greater Than 1 μm [5, 17]: 53 Volume % | Volume % With Diameter Greater Than 2 μm [5, 17]: 7 Volume % | Volume % With Diameter Greater Than 5 μm [5, 17]: 2 Volume % | Volume % With Diameter Greater Than 10 μm [5, 17]: 2 Volume % | Volume % With Diameter Greater Than 1 μm [5, 18]: 54 Volume % | Volume % With Diameter Greater Than 2 μm [5, 18]: 8 Volume % | Volume % With Diameter Greater Than 5 μm [5, 18]: 0 Volume % | Volume % With Diameter Greater Than 10 μm [5, 18]: 2 Volume % | Volume % With Diameter Greater Than 1 μm [5, 19]: 56 Volume % | Volume % With Diameter Greater Than 2 μm [5, 19]: 21 Volume % | Volume % With Diameter Greater Than 5 μm [5, 19]: 8 Volume % | Volume % With Diameter Greater Than 10 μm [5, 19]: 12 Volume % | d50 ([5]; within about one hour, 0.4–0.5 mm zirconium silicate media): ~1 micron
